“And” between values parts separate entries of the source, which are not always exact repeats. Equal values may be shown once.
How the values were obtained:
Type in all cases: in vivo
C57BL/6 DIO mice = assay: Body weights of C57BL/6 DIO mice during daily treatment; conditions: Celastrol 0.2 mg/kg IP daily; for Body weights (expressed as a percentage of day-1 weight) / Body weights (in grams): Belaronib 0.3 mg/kg SC, mean
Magel2 mice = assay: Deaths and clinical signs, Magel2 study; conditions: 0.2 mg/kg IP for 21 days
Protocol: (§1) In the study disclosed herein, celastrol at was administered intraperitoneally using a 30G needle at a dose of 0.2 mg/kg to five female Magel2 homozygous mice (−/−) and four male mice heterozygous for Magel2 (−/+). In addition, vehicle was administered to four male mice heterozygous for Magel2 (−/+) for 21 days.

C57BL/6-Magel2 mice = assay: Body weights of C57BL/6 Magel2 mice during daily treatment; conditions: 0.2 mg/kg IP QD; for Body weights (expressed as a percentage of day-1 weight) / Body weights (in grams): mean; for body weight lost from day 1 to day 21: vehicle +2.7%
Protocol: as §1
C57BL/6-Magel2 mice were bred for purpose from cryo recovery by Jackson Labs (Bar Harbor, ME) and arrived at the testing facility at age 8 weeks.
All treatment volumes were 10 mL/kg. Utilizing the art-recognized nestlet shredding mouse model, the dose was administered by gavage (as capsule dosing is challenging in mice). Celastrol and the vehicle control were administered intraperitoneally using a 30G needle. All treatments were administered daily in the afternoon at 17:00 h, 1 hour before dark cycle from Day 1 to end of dosing.
Celastrol was dissolved in 50% Solutol/50% DMAC. The resulting stock solution aliquoted and stored at −80° C. until treatment day. On the day of treatment an aliquot of the stock solution was thawed and diluted 1:20 with saline to obtain the desired dosing solution strength in 5%
Mouse body weights were recorded from an Ohaus model CS 200 balance. Mice were weighed daily on Day 1 to Day 21. Body weight changes are expressed as grams and percent of the initial body weight (on Day 1, when treatments began).

C57BL/6 mice = assay: Deaths and clinical signs, C57BL/6 DIO study; conditions: C57BL/6 DIO mice treated Day 1 to Day 15; Celastrol 0.2 mg/kg IP
Protocol: C57BL/6 mice were treated with test compound (Celastrol) or controls as shown in the table below from Day 1 to Day 15. […] One mouse was excluded from the study because it appeared resistant to nestlet shredding prior to treatment.

[1] = Day 1, Magel2 (−/+) heterozygous male mice
[2] = Day 1, Magel2 (−/−) homozygous female mice
[3] = Day 2, Magel2 (−/+) heterozygous male mice
[4] = Day 2, Magel2 (−/−) homozygous female mice
[5] = Day 4, Magel2 (−/+) heterozygous male mice
[6] = Day 4, Magel2 (−/−) homozygous female mice
[7] = Day 6, Magel2 (−/+) heterozygous male mice
[8] = Day 6, Magel2 (−/−) homozygous female mice
[9] = Day 8, Magel2 (−/+) heterozygous male mice
[10] = Day 8, Magel2 (−/−) homozygous female mice
[11] = Day 10, Magel2 (−/+) heterozygous male mice
[12] = Day 10, Magel2 (−/−) homozygous female mice
[13] = Day 11, Magel2 (−/+) heterozygous male mice
[14] = Day 11, Magel2 (−/−) homozygous female mice
[15] = Day 13, Magel2 (−/+) heterozygous male mice
[16] = Day 13, Magel2 (−/−) homozygous female mice
[17] = Day 15, Magel2 (−/+) heterozygous male mice
[18] = Day 15, Magel2 (−/−) homozygous female mice
[19] = Day 17, Magel2 (−/+) heterozygous male mice
[20] = Day 17, Magel2 (−/−) homozygous female mice
[21] = Day 18, Magel2 (−/+) heterozygous male mice
[22] = Day 18, Magel2 (−/−) homozygous female mice
[23] = Day 20, Magel2 (−/+) heterozygous male mice
[24] = Day 20, Magel2 (−/−) homozygous female mice
[25] = Day 21, Magel2 (−/+) heterozygous male mice
[26] = Day 21, Magel2 (−/−) homozygous female mice

CC1=C(O)C(=O)C=C2C1=CC=C1[C@@]2(C)CC[C@@]2(C)[C@@H]3C[C@](C)(C(=O)O)CC[C@]3(C)CC[C@]12C [Celastrol]
Body weights (expressed as a percentage of day-1 weight) (C57BL/6 DIO mice; Day 1): 100.0%
Body weights (in grams) (C57BL/6 DIO mice; Day 1): 44.8 grams and 45.4 grams
Body weights (expressed as a percentage of day-1 weight) (C57BL/6 DIO mice; Day 2): 98.6%
Body weights (in grams) (C57BL/6 DIO mice; Day 2): 44.8 grams
Body weights (expressed as a percentage of day-1 weight) (C57BL/6 DIO mice; Day 3): 95.8%
Body weights (in grams) (C57BL/6 DIO mice; Day 3): 43.5 grams
Body weights (expressed as a percentage of day-1 weight) (C57BL/6 DIO mice; Day 4): 92.8%
Body weights (in grams) (C57BL/6 DIO mice; Day 4): 42.2 grams
Body weights (expressed as a percentage of day-1 weight) (C57BL/6 DIO mice; Day 5): 89.6%
Body weights (in grams) (C57BL/6 DIO mice; Day 5): 40.7 grams
Body weights (expressed as a percentage of day-1 weight) (C57BL/6 DIO mice; Day 6): 86.2%
Body weights (in grams) (C57BL/6 DIO mice; Day 6): 39.2 grams
Body weights (expressed as a percentage of day-1 weight) (C57BL/6 DIO mice; Day 7): 83.8%
Body weights (in grams) (C57BL/6 DIO mice; Day 7): 38.1 grams
Body weights (expressed as a percentage of day-1 weight) (C57BL/6 DIO mice; Day 8): 81.3%
Body weights (in grams) (C57BL/6 DIO mice; Day 8): 37.0 grams
Body weights (expressed as a percentage of day-1 weight) (C57BL/6 DIO mice; Day 9): 79.2%
Body weights (in grams) (C57BL/6 DIO mice; Day 9): 36.0 grams
Body weights (expressed as a percentage of day-1 weight) (C57BL/6 DIO mice; Day 10): 76.5%
Body weights (in grams) (C57BL/6 DIO mice; Day 10): 34.8 grams
Body weights (expressed as a percentage of day-1 weight) (C57BL/6 DIO mice; Day 11): 73.9%
Body weights (in grams) (C57BL/6 DIO mice; Day 11): 33.6 grams
Body weights (expressed as a percentage of day-1 weight) (C57BL/6 DIO mice; Day 12): 72.2%
Body weights (in grams) (C57BL/6 DIO mice; Day 12): 32.8 grams
Body weights (expressed as a percentage of day-1 weight) (C57BL/6 DIO mice; Day 13): 71.1%
Body weights (in grams) (C57BL/6 DIO mice; Day 13): 32.3 grams
Body weights (expressed as a percentage of day-1 weight) (C57BL/6 DIO mice; Day 14): 70.1%
Body weights (in grams) (C57BL/6 DIO mice; Day 14): 31.9 grams
Body weights (expressed as a percentage of day-1 weight) (C57BL/6 DIO mice; Day 15): 69.2%
Body weights (in grams) (C57BL/6 DIO mice; Day 15): 31.4 grams
body weight lost (percentage of day 1 body weight) (C57BL/6 DIO mice; at day 15, Beloranib 0.3 mg/kg SC, vehicle-treated mice lost 15.5%): 30.8%
deaths or abnormal clinical signs (Magel2 mice): No deaths or abnormal clinical signs
Body weights (expressed as a percentage of day-1 weight) (C57BL/6-Magel2 mice; [1]): 100.0%
Body weights (in grams) (C57BL/6-Magel2 mice; [1]): 26.6 grams
Body weights (expressed as a percentage of day-1 weight) (C57BL/6-Magel2 mice; [2]): 100.0%
Body weights (in grams) (C57BL/6-Magel2 mice; [2]): 20.5 grams
Body weights (expressed as a percentage of day-1 weight) (C57BL/6-Magel2 mice; [3]): 99.6%
Body weights (in grams) (C57BL/6-Magel2 mice; [3]): 26.5 grams
Body weights (expressed as a percentage of day-1 weight) (C57BL/6-Magel2 mice; [4]): 101.2%
Body weights (in grams) (C57BL/6-Magel2 mice; [4]): 20.8 grams
Body weights (expressed as a percentage of day-1 weight) (C57BL/6-Magel2 mice; [5]): 101.1%
Body weights (in grams) (C57BL/6-Magel2 mice; [5]): 26.9 grams
Body weights (expressed as a percentage of day-1 weight) (C57BL/6-Magel2 mice; [6]): 105.6%
Body weights (in grams) (C57BL/6-Magel2 mice; [6]): 21.7 grams
Body weights (expressed as a percentage of day-1 weight) (C57BL/6-Magel2 mice; [7]): 99.4%
Body weights (in grams) (C57BL/6-Magel2 mice; [7]): 26.4 grams
Body weights (expressed as a percentage of day-1 weight) (C57BL/6-Magel2 mice; [8]): 107.1%
Body weights (in grams) (C57BL/6-Magel2 mice; [8]): 22.0 grams
Body weights (expressed as a percentage of day-1 weight) (C57BL/6-Magel2 mice; [9]): 101.3%
Body weights (in grams) (C57BL/6-Magel2 mice; [9]): 26.9 grams
Body weights (expressed as a percentage of day-1 weight) (C57BL/6-Magel2 mice; [10]): 106.2%
Body weights (in grams) (C57BL/6-Magel2 mice; [10]): 21.8 grams
Body weights (expressed as a percentage of day-1 weight) (C57BL/6-Magel2 mice; [11]): 96.4%
Body weights (in grams) (C57BL/6-Magel2 mice; [11]): 25.6 grams
Body weights (expressed as a percentage of day-1 weight) (C57BL/6-Magel2 mice; [12]): 100.9%
Body weights (in grams) (C57BL/6-Magel2 mice; [12]): 20.7 grams
Body weights (expressed as a percentage of day-1 weight) (C57BL/6-Magel2 mice; [13]): 94.4%
Body weights (in grams) (C57BL/6-Magel2 mice; [13]): 25.1 grams
Body weights (expressed as a percentage of day-1 weight) (C57BL/6-Magel2 mice; [14]): 95.6%
Body weights (in grams) (C57BL/6-Magel2 mice; [14]): 19.6 grams
Body weights (expressed as a percentage of day-1 weight) (C57BL/6-Magel2 mice; [15]): 94.2%
Body weights (in grams) (C57BL/6-Magel2 mice; [15]): 25.0 grams
Body weights (expressed as a percentage of day-1 weight) (C57BL/6-Magel2 mice; [16]): 93.5%
Body weights (in grams) (C57BL/6-Magel2 mice; [16]): 19.2 grams
Body weights (expressed as a percentage of day-1 weight) (C57BL/6-Magel2 mice; [17]): 93.9%
Body weights (in grams) (C57BL/6-Magel2 mice; [17]): 25.0 grams
Body weights (expressed as a percentage of day-1 weight) (C57BL/6-Magel2 mice; [18]): 95.0%
Body weights (in grams) (C57BL/6-Magel2 mice; [18]): 19.5 grams
Body weights (expressed as a percentage of day-1 weight) (C57BL/6-Magel2 mice; [19]): 85.0%
Body weights (in grams) (C57BL/6-Magel2 mice; [19]): 22.6 grams
Body weights (expressed as a percentage of day-1 weight) (C57BL/6-Magel2 mice; [20]): 85.3%
Body weights (in grams) (C57BL/6-Magel2 mice; [20]): 17.5 grams
Body weights (expressed as a percentage of day-1 weight) (C57BL/6-Magel2 mice; [21]): 83.0%
Body weights (in grams) (C57BL/6-Magel2 mice; [21]): 22.1 grams
Body weights (expressed as a percentage of day-1 weight) (C57BL/6-Magel2 mice; [22]): 85.6%
Body weights (in grams) (C57BL/6-Magel2 mice; [22]): 17.6 grams
Body weights (expressed as a percentage of day-1 weight) (C57BL/6-Magel2 mice; [23]): 84.5%
Body weights (in grams) (C57BL/6-Magel2 mice; [23]): 22.5 grams
Body weights (expressed as a percentage of day-1 weight) (C57BL/6-Magel2 mice; [24]): 88.8%
Body weights (in grams) (C57BL/6-Magel2 mice; [24]): 18.3 grams
Body weights (expressed as a percentage of day-1 weight) (C57BL/6-Magel2 mice; [25]): 83.8%
Body weights (in grams) (C57BL/6-Magel2 mice; [25]): 22.3 grams
Body weights (expressed as a percentage of day-1 weight) (C57BL/6-Magel2 mice; [26]): 89.6%
Body weights (in grams) (C57BL/6-Magel2 mice; [26]): 18.4 grams
body weight lost from day 1 to day 21 (C57BL/6-Magel2 mice; female homozygous Magel2 (−/−) mice): 10.4%
body weight lost from day 1 to day 21 (C57BL/6-Magel2 mice; male heterozygous Magel2 (−/+) mice): 16.2%
deaths or abnormal clinical signs (C57BL/6 mice): No deaths or abnormal clinical signs

Reference: US20260191807A1, “COMPOSITIONS AND METHODS FOR TREATMENT OF PRADER-WILLI SYNDROME” (ERX Pharmaceuticals Inc., priority 2022, published 2026)
